# Activity calls are given as the source filed them.
# Tests used:
# [1] = MITF Measured in Cell-Based System Using Plate Reader - 2084-01_Inhibitor_Dose_DryPowder_Activity_Set7.; format: functional
# [2] = MITF Orthogonal Assay: MALME3 CTG Assay Measured in Cell-Based System Using Plate Reader - 2084-04_Inhibitor_Dose_DryPowder_Activity_Set6.; format: functional; details: MALME-3
# [3] = melanocyte viability loss, MITF-dependent cells, cell-based, plate reader, dry powder, cytotoxicity control, dose response (AID 651920); format: functional
# [4] = viability loss in MITF-independent A375 cells – cell-based, CellTiter-Glo luminescence, dry powder, set 6, counter-screen for MITF inhibitor project, dose response (AID 624488); format: functional; details: A-375
# [5] = cytotoxicity in melanoma parental cells – cell-based, CellTiter-Glo, dry powder, set 6, MITF inhibitor project, dose response (AID 624429); format: functional; details: SK-MEL-5
# [6] = inhibitors of TRPM1-promoter reporter in SK-MEL-5 – cell-based, luciferase, dry powder, set 9, MITF inhibitor project, dose response (AID 651588); format: functional
# [7] = growth inhibition of SK-MEL-5 melanoma cells – cell-based, CellTiter-Glo luminescence, dry powder, set 8, orthogonal assay for MITF inhibitor project, dose response (AID 651586); format: functional
# [8] = MITF Measured in Cell-Based System Using Plate Reader - 2084-01_Inhibitor_Dose_DryPowder_Activity_Set6.; format: functional
# [9] = growth inhibition of MALME3 cells – cell-based, CellTiter-Glo luminescence, dry powder, set 5, orthogonal assay for MITF inhibitor project, dose response (AID 651584); format: functional; details: MALME-3
# [10] = MITF Orthogonal Assay: SK-MEL-5 CTG Assay Measured in Cell-Based System Using Plate Reader - 2084-02_Inhibitor_Dose_DryPowder_Activity_Set5.; format: functional
# [11] = cytotoxicity in MITF-independent A375 cells – cell-based, CellTiter-Glo luminescence, dry powder, set 4, counter-screen for MITF inhibitor project, dose response (AID 624364); format: functional; details: A-375;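 note: A375 melanoma cells are MITF independent so this is a counter screen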
# [12] = viability loss in MITF-independent A375 cells – cell-based, CellTiter-Glo luminescence, dry powder, set 7, counter-screen for MITF inhibitor project, dose response (AID 624490); format: functional; details: A-375
# [13] = cytotoxicity in MITF-independent A375 cells – cell-based, CellTiter-Glo luminescence, dry powder, set 9, counter-screen for MITF modulator project, dose response (AID 651591); format: functional; details: A-375
# Phospholipase D1 = Phospholipase D1 (Homo sapiens, UniProt Q13393); assay: PLD1 Cellular Concentration Response Study.; format: functional
# Phospholipase D2 = Phospholipase D2 (Homo sapiens, UniProt O14939); assay: PLD2 Cellular Concentration Response Study.; format: functional
# [14] = P. falciparum Dd2 growth inhibitors, dose response, SYBR Green, cherry-picked samples (AID 1159567); format: functional, cell-based
# [15] = Dd2 malaria parasite growth inhibition potency – SYBR Green, dry powder samples, dose response (AID 1159566); format: functional, cell-based;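 note: potency for growth inhibition with lower SYBR green DNA signal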
# [16] = growth inhibition of yeast DHODH-expressing 3D7 parasites – SYBR Green, dry powder samples, dose response (AID 1159570); format: functional, cell-based;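 note: parasite growth measured after 72 hours of compound exposure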
# [17] = growth inhibition of PfATP4-mutant resistant parasites – NITD609-resistant line, SYBR Green, dry powder, dose response (AID 1159571); format: functional, cell-based;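 note: parasites synchronized at ring stage by sorbitol before testing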
# cells = details: HEK293
# [18] = toxicity to A549 lung cells – cell-based, plate reader, dry powder, set 6, cytotoxicity control, dose response (AID 743312); format: functional
# [19] = toxicity to HepG2 liver cells – cell-based, plate reader, dry powder, set 6, cytotoxicity control, dose response (AID 743311); format: functional
# [20] = CellTiter-Glo luminescence survival assay, SW480 colon tumor line, concentration-response curve, half-maximal inhibitory concentration (AID 1117338); format: functional
# [21] = RKO cell viability reduction, dose response, CellTiter-Glo luminescence (AID 1117322); format: functional
# [22] = IC50 of insulin release inhibition, rat insulinoma INS-1E line, 5 mM glucose, cell-based (AID 1117331); format: functional
# [23] = rise of 4N DNA cells, HeLa – IC50, dose response (AID 1117351); format: functional, cell-based
# [24] = rise of 2N DNA cells, HeLa – IC50, dose response (AID 1117349); format: functional, cell-based
# [25] = HCT116 cell viability decrease, GSK3B pretreatment – CellTiter-Glo, IC50, dose response (AID 1117339); format: functional; details: HCT-116
# [26] = Reduced DLD-1 viability, concentration-response, CellTiter-Glo luminescence (AID 1117352); format: functional
# [27] = cytotoxicity toward HT-29 cells – cell-based, CellTiter-Glo luminescence, IC50, dose response (AID 1117330); format: functional
# [28] = SNU-C1 cell viability reduction, dose response, CellTiter-Glo luminescence (AID 1117323); format: functional, cell-based
# [29] = cytotoxicity toward Colo320 cells – cell-based, CellTiter-Glo luminescence, IC50, dose response (AID 1117334); format: functional; details: COLO 320
# Phospholipase D1, sequence (Q13393 whole entry): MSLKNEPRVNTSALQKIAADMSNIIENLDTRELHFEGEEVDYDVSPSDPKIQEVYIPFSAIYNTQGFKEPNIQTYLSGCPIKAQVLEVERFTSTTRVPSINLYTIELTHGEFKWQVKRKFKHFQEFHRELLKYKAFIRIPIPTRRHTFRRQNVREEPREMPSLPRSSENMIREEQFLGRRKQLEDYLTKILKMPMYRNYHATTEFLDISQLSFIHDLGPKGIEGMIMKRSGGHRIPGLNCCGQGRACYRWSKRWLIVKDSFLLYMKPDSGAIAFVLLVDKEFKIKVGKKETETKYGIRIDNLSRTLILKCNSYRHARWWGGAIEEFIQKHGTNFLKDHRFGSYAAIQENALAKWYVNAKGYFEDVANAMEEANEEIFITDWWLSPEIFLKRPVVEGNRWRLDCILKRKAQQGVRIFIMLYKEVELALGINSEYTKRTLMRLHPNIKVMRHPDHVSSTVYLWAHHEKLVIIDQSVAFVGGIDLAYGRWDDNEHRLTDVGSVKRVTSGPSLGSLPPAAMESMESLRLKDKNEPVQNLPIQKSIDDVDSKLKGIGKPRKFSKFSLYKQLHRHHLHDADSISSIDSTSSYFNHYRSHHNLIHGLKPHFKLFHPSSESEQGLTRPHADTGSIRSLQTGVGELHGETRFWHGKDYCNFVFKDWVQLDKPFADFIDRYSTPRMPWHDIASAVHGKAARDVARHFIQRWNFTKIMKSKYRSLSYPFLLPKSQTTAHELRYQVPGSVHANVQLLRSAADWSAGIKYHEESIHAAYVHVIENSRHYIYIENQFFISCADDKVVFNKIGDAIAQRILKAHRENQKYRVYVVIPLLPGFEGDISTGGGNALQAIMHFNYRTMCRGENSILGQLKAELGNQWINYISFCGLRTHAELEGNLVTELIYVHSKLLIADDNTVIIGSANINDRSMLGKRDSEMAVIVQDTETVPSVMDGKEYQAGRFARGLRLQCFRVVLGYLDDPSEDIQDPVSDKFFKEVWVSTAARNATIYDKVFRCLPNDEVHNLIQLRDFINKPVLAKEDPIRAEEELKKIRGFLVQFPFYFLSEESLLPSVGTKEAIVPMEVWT
# Phospholipase D2, sequence (O14939 whole entry): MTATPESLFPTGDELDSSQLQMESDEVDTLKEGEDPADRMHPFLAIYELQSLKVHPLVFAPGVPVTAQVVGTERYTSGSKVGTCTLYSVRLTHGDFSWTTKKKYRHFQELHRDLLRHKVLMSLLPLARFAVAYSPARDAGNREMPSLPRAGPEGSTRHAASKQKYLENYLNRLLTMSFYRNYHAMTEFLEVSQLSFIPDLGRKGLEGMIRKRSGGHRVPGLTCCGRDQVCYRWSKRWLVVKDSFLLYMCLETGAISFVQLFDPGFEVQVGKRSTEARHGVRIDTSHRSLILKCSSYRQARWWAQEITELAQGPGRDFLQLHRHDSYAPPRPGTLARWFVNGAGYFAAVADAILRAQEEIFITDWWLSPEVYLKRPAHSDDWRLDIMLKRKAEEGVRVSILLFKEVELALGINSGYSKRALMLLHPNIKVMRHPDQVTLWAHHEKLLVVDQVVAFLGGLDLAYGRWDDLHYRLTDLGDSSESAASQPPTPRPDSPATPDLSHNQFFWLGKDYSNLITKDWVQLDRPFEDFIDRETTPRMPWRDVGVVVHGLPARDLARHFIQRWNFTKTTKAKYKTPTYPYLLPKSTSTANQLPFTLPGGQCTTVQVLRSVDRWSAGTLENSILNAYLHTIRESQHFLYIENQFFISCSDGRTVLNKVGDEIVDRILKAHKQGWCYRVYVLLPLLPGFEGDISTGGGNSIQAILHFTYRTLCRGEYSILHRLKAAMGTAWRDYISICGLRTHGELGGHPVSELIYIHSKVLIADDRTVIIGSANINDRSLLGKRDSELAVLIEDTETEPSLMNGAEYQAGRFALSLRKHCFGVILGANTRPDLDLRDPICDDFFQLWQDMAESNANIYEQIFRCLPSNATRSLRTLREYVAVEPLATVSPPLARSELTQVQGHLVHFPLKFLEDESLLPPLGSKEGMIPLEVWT
smiles,measurement,setting,value
COC1=C(NS(=O)(=O)c2cccs2)C(=O)c2ccccc2C1=O,AC50,[1],12.3 µM (active)
same,AC50,[2],38 µM (active)
same,AC50,[3],64.3 µM (active)
same,AC50,[4],64.7 µM (active)
same,AC50,[5],20.2 µM (active)
same,AC50,[6],26.3 µM (active)
same,AC50,[7],21 µM (active)
same,AC50,[8],13.2 µM (active)
same,AC50,[9],38 µM (active)
same,AC50,[10],19.1 µM (active)
same,AC50,[11],> 70 µM (inactive)
same,AC50,[12],> 70 µM (inactive)
same,AC50,[13],> 70 µM (inactive)
O=C(NCCN1CCC2(CC1)C(=O)NCN2Cc1cccnc1)c1cc2cc(F)ccc2[nH]1,IC50,Phospholipase D1,3.15 µM (active)
same,IC50,Phospholipase D2,0.12 µM (active)
COc1ccc2c3c(n(C)c2c1)[C@@H](CO)N(C(=O)c1ccc(F)cc1)CC31CCN(C(=O)Nc2ccc(F)cc2)CC1,AC50,[14],1.89 µM (active)
same,AC50,[15],0.795 µM (active)
same,AC50,[16],1.04 µM (active)
same,AC50,[17],1.06 µM (active)
Cc1ccc(C(C)C)c(OCCn2c(CO)nc3ccccc32)c1,AC50,cells,32.2 µM (active)
same,AC50,[18],38.5 µM (active)
same,AC50,[19],37.4 µM (active)
CC(=O)Oc1ccc(C2(c3ccc(OC(C)=O)cc3)Oc3ccccc3NC2=O)cc1 [BISOXATIN ACETATE],IC50,[20],9.19 µM (inactive)
same,IC50,[21],9.23 µM (inactive)
same,IC50,[22],> 33.3 µM (inactive)
same,IC50,[23],> 10 µM (inactive)
same,IC50,[24],> 10 µM (inactive)
same,IC50,[25],3.26 µM (active)
same,IC50,[26],19.7 µM (inactive)
same,IC50,[27],> 20 µM (inactive)
same,IC50,[28],> 20 µM (inactive)
same,IC50,[29],> 20 µM (inactive)

# — ChEMBL document CHEMBL1201862, “PubChem BioAssay data set” (2004)
